Test results as given in patent US8227616B2, “Cyanopyridine antibacterial agents and methods of use thereof” (Wisconsin Alumni Research Foundation, priority 2006, dated 2012).
Converted amounts (≈) assume the structure as drawn. Where two headings read alike, the source gives them in different places.

Tests used:
[1] = system: B. subtilis subsp. spizizenii ATCC 6633; test: MIC determination, species selectivity; type: cell-based; conditions: Bacillus subtilis, ATCC6633; authentic sample, only trans isomers of chalcones; error reflects step size
Method: (§1) Each compound from Table 3 was tested for inhibitory activity at 2.5, 5, 7.5, 10, 15, 20, 25, and 30 μM in the susceptible overlaid strains: B. subtilis ATCC 6633, S. epidermidis ATCC 12228, and K. pneumoniae ATCC 4352. MIC assays were run in quadruplicate as described above (with shaking).

[2] = system: S. epidermidis ATCC 12228; test: MIC determination, species selectivity; type: cell-based; conditions: Staphylococcus epidermidis, ATCC12228; authentic sample, only trans isomers of chalcones; error reflects step size
Method: as §1

S. aureus ATCC 10390 = test: Estimated MIC, solution-phase microdilution absorbance assay with crude macroarray spot stock solutions; type: cell-based, Staphylococcus aureus; conditions: for MIC: Staphylococcus aureus, ATCC10390, 12 h
Method: Spots from a new 69 member chalcone macroarray as well as the three heterocyclic macroarrays prepared earlier were punched out, cleaved, and eluted with acetonitrile. The resulting solutions were concentrated to a residue that was taken up in DMSO to form 2 mM stock solutions.
From the stock solutions, microdilution assays in a 96 well plate starting at 50 μM were performed in quadruplicate. Each well contained 5 μL of the stock solution as well as 195 μL of a S. aureus culture. The turbidity of each well was measured after incubating 12 hours using a standard plate reader. Active compounds can be further diluted and the assay repeated.
To acquire more quantitative antibacterial activity data about our compounds and verify our on-support assay results, we performed solution-phase absorbance assays that provided estimates of the minimum inhibitory concentration (MIC) of each macroarray member against S. aureus. Stock solutions (ca. 2 mM) were generated by cleaving and eluting 198 individual compounds from chalcone (3) and heterocyclic macroarrays (5, 7, and 8). […] The good overall purities of the crude macroarray compounds allowed for reasonable estimations of MICs.
For estimated MIC determination, DMSO was added to the dried compound residue obtained from a single spot to afford ca. 100 μL of a 2 mM stock solution. Aliquots (5 μL) of these solutions were added to a 96-well plate, followed by 195 μL of diluted S. aureus 10390 (10^6 CFUs/mL) to yield ca. 50 μM final concentrations. The plates were swirled for 1 h to ensure compound dissolution, incubated for 12 h at 37° C., and the absorbance at 595 nm was recorded using a plate reader. […] Actual MIC values were determined for lead compounds resynthesized in solution using an analogous procedure with solutions of known concentration (see).
Preparation of spot samples and controls. An aliquot of DMSO (ca. 100 μL depending on the loading of the parent hydroxyacetophenone) was added to the dried compound residue obtained after TFA cleavage and elution from a single spot. This afforded a 2.0 mM “spot stock” solution for each spot. A small aliquot of each “spot stock” solution was saved for subsequent LC-MS analysis.
For estimated MIC screens, 5.0 μL portions of the “spot stock” solutions were added to the appropriate wells in a sterile, polystyrene 96-well plate to yield ca. 50 μM solutions (dependent on the initial loading of hydroxyacetopheneone and compound purity). To the positive and negative control wells, 5.0 μL of DMSO were added (positive controls contained bacteria but no compound, while negative controls had neither compound nor bacteria). All estimated MIC assays were performed in quadruplicate. Note: the MIC value is defined as the lowest concentration where no bacterial growth occurs.
Representative estimated MIC assay procedure. This assay procedure is based in part on the method reported by Strøm et al.^xiii A 400 μL portion of overnight S. aureus 10390 culture was diluted with 100 mL of sterile LB broth to give ca. 10^6 CFUs per mL. Aliquots (195 μL) of this solution were added to all of the wells in a sterile 96-well plate (except for the negative control wells; 195 μL of sterile LB broth were added to these wells). The plates were placed on an orbital shaker table and gently swirled for 1 h to ensure compound dissolution, and then incubated (without shaking) for 12 h at 37° C. The absorbance at 595 nm was recorded using a plate reader.
The original “spot stock” solutions of these compounds were diluted with DMSO to give ca. 25 and 13 μM final concentrations and tested for inhibitory activities using the procedure described above.

With `O=C(/C=C/c1cc(C(F)(F)F)cc(C(F)(F)F)c1)c1cccc(O)c1` [Compound 4Bv, 3′-hydroxy-3,5-bis(trifluoromethyl)chalcone] the MIC [1] was 8.8 ± 1.2 µM (≈ 3.17 µg/mL), the MIC [2] was 3.8 ± 1.2 µM (≈ 1.37 µg/mL) and the “inhibition of S. aureus at the 12.5 μM level” value (S. aureus ATCC 10390; 12.5 μM, macroarray stock solutions diluted four fold) was “complete inhibition”. The MIC (S. aureus ATCC 10390; Table 2, serial dilution of stock solutions obtained by SPOT-synthesis, read-out: estimated MIC range) was 6.25 to 12.5 µM (≈ 2.25 to 4.5 µg/mL) and the MIC (S. aureus ATCC 10390; Table 3, serial dilution of spot stock solutions of crude macroarray compounds, read-out: S. aureus Estimated MIC range) was under 12.5 µM.
